Laboratory results reported in the supplement of paper PMC10307832.

Columns and labels:
Test in all cases: relative viability (nuclei count vs DMSO), 5 days (fraction); higher = more cells survive
Selisistat + Pemetrexed = compound: C1CC(C2=C(C1)C3=C(N2)C=CC(=C3)Cl)C(=O)N [Selisistat] + Nc1nc2[nH]cc(CCc3ccc(C(=O)N[C@@H](CCC(=O)O)C(=O)O)cc3)c2c(=O)[nH]1 [Pemetrexed] (partner 0.2 µM)
Procedure, shortened: (§1)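 Values are medians from duplicate plates. Each reflects relative viability, defined as the nuclei count of treated wells over that of vehicle wells. Lung cancer cell lines in 1536-well plates were pin-tool dosed one day after seeding with one drug alone or with a fixed anchor-drug dose plus five library-drug doses (not always all listed) in √10 steps, then fixed, stained and imaged at 4× after 5 days.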

Serdemetan + Crizotinib = compound: c1ccc2c(CCNc3ccc(Nc4ccncc4)cc3)c[nH]c2c1 [Serdemetan] + C[C@@H](Oc1cc(-c2cnn(C3CCNCC3)c2)cnc1N)c1c(Cl)ccc(F)c1Cl [Crizotinib] (partner 1 µM)
Procedure, shortened: as §1

Selisistat + Foretinib = compound: C1CC(C2=C(C1)C3=C(N2)C=CC(=C3)Cl)C(=O)N [Selisistat] + COc1cc2c(Oc3ccc(NC(=O)C4(C(=O)Nc5ccc(F)cc5)CC4)cc3F)ccnc2cc1OCCCN1CCOCC1 [Foretinib] (partner 0.25 µM)
Procedure, shortened: as §1

Serdemetan + Bortezomib = compound: c1ccc2c(CCNc3ccc(Nc4ccncc4)cc3)c[nH]c2c1 [Serdemetan] + CC(C)C[C@H](NC(=O)[C@H](Cc1ccccc1)NC(=O)c1cnccn1)B(O)O [Bortezomib] (partner 0.002 µM)
Procedure, shortened: as §1

Cell Line: UMC-11
- relative viability (Selisistat + Pemetrexed; first compound 0.4 µM): 0.767
- relative viability (Selisistat + Pemetrexed; first compound 1.265 µM): 0.749
- relative viability (Selisistat + Pemetrexed; first compound 4 µM): 0.844
- relative viability (Selisistat + Pemetrexed; first compound 12.65 µM): 0.754
- relative viability (Selisistat + Pemetrexed; first compound 40 µM): 0.759
- relative viability (Serdemetan + Crizotinib; first compound 0.04 µM): 0.661
- relative viability (Serdemetan + Crizotinib; first compound 0.1265 µM): 0.591
- relative viability (Serdemetan + Crizotinib; first compound 0.4 µM): 0.577
- relative viability (Serdemetan + Crizotinib; first compound 1.265 µM): 0.482
- relative viability (Serdemetan + Crizotinib; first compound 4 µM): 0.358
- relative viability (Selisistat + Foretinib; first compound 0.4 µM): 0.979
- relative viability (Selisistat + Foretinib; first compound 1.265 µM): 0.988
- relative viability (Selisistat + Foretinib; first compound 4 µM): 1.08
- relative viability (Selisistat + Foretinib; first compound 12.65 µM): 0.982
- relative viability (Selisistat + Foretinib; first compound 40 µM): 1.02
- relative viability (Serdemetan + Bortezomib; first compound 0.04 µM): 0.614
- relative viability (Serdemetan + Bortezomib; first compound 0.1265 µM): 0.666
- relative viability (Serdemetan + Bortezomib; first compound 0.4 µM): 0.668
- relative viability (Serdemetan + Bortezomib; first compound 1.265 µM): 0.53
- relative viability (Serdemetan + Bortezomib; first compound 4 µM): 0.839
